According to patent US10508085B2, “Compounds and methods for IDO and TDO modulation, and indications therefor” (Plexxikon Inc., priority 2016, dated 2019):

Key:
[1] = molecular target: T1, Human Tryptophan 2,3-dioxygenase (TDO) (Homo sapiens, UniProt P48775); test: Human TDO enzymatic assay (kynurenine level); format: biochemical; conditions: 1 nM TDO, 350 μM L-Trp; geometric mean; read-out: TDO GMean: IC50 (μM) (Biochemical Assay)
T1 construct: His tag (N); made in house; host or cells: E. coli
T1 sequence (P48775 whole entry): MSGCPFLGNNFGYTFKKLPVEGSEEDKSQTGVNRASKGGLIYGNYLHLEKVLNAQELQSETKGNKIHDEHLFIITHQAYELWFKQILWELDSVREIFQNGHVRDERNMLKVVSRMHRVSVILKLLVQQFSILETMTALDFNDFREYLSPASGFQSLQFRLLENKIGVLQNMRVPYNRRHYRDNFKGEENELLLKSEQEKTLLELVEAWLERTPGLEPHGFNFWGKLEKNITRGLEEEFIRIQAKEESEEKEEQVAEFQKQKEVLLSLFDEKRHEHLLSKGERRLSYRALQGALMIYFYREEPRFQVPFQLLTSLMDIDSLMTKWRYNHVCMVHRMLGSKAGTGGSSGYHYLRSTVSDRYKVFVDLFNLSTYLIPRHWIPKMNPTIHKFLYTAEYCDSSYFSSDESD
Protocol: (§1) Human Indoleamine 2,3-dioxygenase (IDO) and Tryptophan 2,3-dioxygenase (TDO) enzymatic assay
(§2) Human IDO or TDO with N-terminal His tag is purified in E. coli. The IDO enzymatic assay is performed using 6 nM IDO and 10 μM L-Trp in the presence of 10 mM ascorbic acid, 5 μM methylene blue, 100 nM catalase and 0.01% Tween 20 in 50 mM sodium phosphate buffer (pH 6.5). 19 μL of above reaction mixture is added to wells of 384 well reaction plate containing […] of various concentrations of test compound or DMSO vehicle and incubated for 20 minutes at room temperature. The TDO enzymatic reaction assay is performed using 1 nM TDO and 350 μM L-Trp in the presence of 10 mM ascorbic acid, 0.4 μM methylene blue, 100 nM catalase and 0.01% Tween 20 in 50 mM sodium phosphate buffer (pH 6.5). 19 μL of above reaction mixture is added to wells of 384 well reaction plate containing 1 μL of various concentrations of test compound or DMSO vehicle and incubated for 70 minutes at room temperature. 16 wells containing all the components of reaction mixture and 5% DMSO serve as high control. 16 well containing all the components except enzyme of reaction mixture and 5% DMSO serves as low control. Both IDO and TDO enzymatic reactions are stopped by addition of […] of 30% TCA and incubated 30 minutes at 50° C. to hydrolyze N-formylkynurenine produced by IDO or TDO to kynurenine. Upon measuring the kynurenine level, the percentage inhibition is calculated at individual concentrations relative to high and low controls. The data is analyzed by using nonlinear regression to generate IC50 values.

[2] = molecular target: T2, Human Indoleamine 2,3-dioxygenase (IDO) (Homo sapiens, UniProt P14902); test: Human IDO enzymatic assay (kynurenine level); format: biochemical; conditions: 6 nM IDO, 10 μM L-Trp; geometric mean; read-out: IDO1 GMean: IC50 (μM) (Biochemical Assay)
T2 construct: His tag (N); made in house; host or cells: E. coli
T2 sequence (P14902 whole entry): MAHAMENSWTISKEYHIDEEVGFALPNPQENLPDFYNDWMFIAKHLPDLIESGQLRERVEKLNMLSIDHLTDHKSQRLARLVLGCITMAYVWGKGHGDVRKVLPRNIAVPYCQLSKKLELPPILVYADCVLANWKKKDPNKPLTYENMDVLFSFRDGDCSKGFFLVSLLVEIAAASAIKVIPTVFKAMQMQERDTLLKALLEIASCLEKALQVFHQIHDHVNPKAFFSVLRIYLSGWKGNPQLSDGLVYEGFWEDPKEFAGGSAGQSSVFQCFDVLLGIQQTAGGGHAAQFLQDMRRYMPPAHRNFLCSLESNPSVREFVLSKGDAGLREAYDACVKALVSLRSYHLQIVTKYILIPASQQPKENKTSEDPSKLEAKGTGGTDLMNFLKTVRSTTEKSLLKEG
Protocol: as §1, §2

Row | Compound | IC50 [1] [µM] | IC50 [2] [µM]
1 | CC(C)(C1CCN(C(=O)NC2CCC(F)(F)CC2)CC1)[C@H](O)c1cc(Cl)cc2cn[nH]c12 [Compound P-0588, (S)-4-(1-(5-chloro-1H-indazol-7-yl)-1-hydroxy-2-methylpropan-2-yl)-N-(4,4-difluorocyclohexyl) piperidine-1-carboxamide] | 0.0001 to 10 | 0.0001 to 10
2 | CN1CCN(Cc2ccc(NC(=O)N3CCC(C(C)(C)[C@H](O)c4cc(Cl)cc5cn[nH]c45)CC3)cc2)CC1 [Compound P-0676, (S)-4-(1-(5-chloro-1H-indazol-7-yl)-1-hydroxy-2-methylpropan-2-yl)-N-(4-((4-methylpiperazin-1-yl)methyl)phenyl) piperidine-1-carboxamide] | 0.0001 to 10 | 0.0001 to 10
3 | OC(c1ccccc1C(F)(F)F)c1cccc2cncn12 (stereo not shown) [Compound P-0067, imidazo[1,5-a]pyridin-5-yl(2-(trifluoromethyl)phenyl)methanol] | 0.0001 to 10 | 100 to 200
4 | CC(C)(C1CCN(C(=O)NCC#N)CC1)[C@H](O)c1cc(Cl)cc2cn[nH]c12 [Compound P-0587, (S)-4-(1-(5-chloro-1H-indazol-7-yl)-1-hydroxy-2-methylpropan-2-yl)-N-(cyanomethyl) piperidine-1-carboxamide] | 0.0001 to 10 | 0.0001 to 10
5 | CC(C)(C1CCN(C(=O)NCC2(C#N)CC2)CC1)[C@H](O)c1cc(Cl)cc2cn[nH]c12 [Compound P-0675, (S)-4-(1-(5-chloro-1H-indazol-7-yl)-1-hydroxy-2-methylpropan-2-yl)-N-((1-cyanocyclopropyl)methyl)piperidine-1-carboxamide] | 0.0001 to 10 | 0.0001 to 10
6 | CN(C)c1ccc(CNC(=O)N2CCC(C(C)(C)[C@H](O)c3cc(Cl)cc4cn[nH]c34)CC2)cn1 [Compound P-0586, (S)-4-(1-(5-chloro-1H-indazol-7-yl)-1-hydroxy-2-methylpropan-2-yl)-N-((6-(dimethylamino)pyridin-3-yl)methyl)piperidine-1-carboxamide] | 0.0001 to 10 | 0.0001 to 10
7 | O=C(NC1CC1)N1CCC(C(F)(F)[C@H](O)c2c3c(cc4cn[nH]c24)CC3)CC1 [Compound P-0628, (R)-N-cyclopropyl-4-(2-(5,6-dihydro-1H-cyclobuta[f]indazol-7-yl)-1,1-difluoro-2-hydroxyethyl) piperidine-1-carboxamide] | 0.0001 to 10 | 0.0001 to 10
8 | OC(c1cccc(F)c1)c1cccc2cncn12 (stereo not shown) [Compound P-0068, (3-fluorophenyl)(imidazo[1,5-a]pyridin-5-yl)methanol] | 0.0001 to 10 | 0.0001 to 10
9 | O=C(CN1CCOCC1)N1CCC(C(F)(F)[C@H](O)c2c3c(cc4cn[nH]c24)CC3)CC1 [Compound P-0622, (R)-1-(4-(2-(5,6-dihydro-1H-cyclobuta[f]indazol-7-yl)-1,1-difluoro-2-hydroxyethyl)piperidin-1-yl)-2-morpholinoethan-1-one] | 0.0001 to 10 | 0.0001 to 10
10 | O=C(NC1CCC1)N1CCC(C(F)(F)[C@H](O)c2c3c(cc4cn[nH]c24)CC3)CC1 [Compound P-0629, (R)-N-cyclobutyl-4-(2-(5,6-dihydro-1H-cyclobuta[f]indazol-7-yl)-1,1-difluoro-2-hydroxyethyl) piperidine-1-carboxamide] | 0.0001 to 10 | 0.0001 to 10
11 | C[C@@H](CO)NC(=O)N1CCC(C(C)(C)[C@H](O)c2cc(Cl)cc3cn[nH]c23)CC1 [Compound P-0669, 4-((S)-1-(5-chloro-1H-indazol-7-yl)-1-hydroxy-2-methylpropan-2-yl)-N-((S)-1-hydroxypropan-2-yl)piperidine-1-carboxamide] | 0.0001 to 10 | 0.0001 to 10
12 | O=C(Nc1ccc(F)cc1)N1CCC(C(F)(F)[C@H](O)c2c3c(cc4cn[nH]c24)CC3)CC1 [Compound P-0637, (R)-4-(2-(5,6-dihydro-1H-cyclobuta[f]indazol-7-yl)-1,1-difluoro-2-hydroxyethyl)-N-(4-fluorophenyl) piperidine-1-carboxamide] | 0.0001 to 10 | 0.0001 to 10
13 | O=C(Cc1ccnc(Cl)c1)N1CCC(C(F)(F)[C@H](O)c2cc(Cl)cc3cn[nH]c23)CC1 [Compound P-0576, (R)-1-(4-(2-(5-chloro-1H-indazol-7-yl)-1,1-difluoro-2-hydroxyethyl)piperidin-1-yl)-2-(2-chloropyridin-4-yl)ethan-1-one] | 0.0001 to 10 | 0.0001 to 10
14 | CC(C)(C)OC(=O)N1CCC(C(C)(C)C(O)c2cc(Cl)cc3[nH]ncc23)CC1 (stereo not shown) [Compound P-0607, tert-butyl 4-(1-(6-chloro-1H-indazol-4-yl)-1-hydroxy-2-methylpropan-2-yl)piperidine-1-carboxylate] | 0.0001 to 10 | 0.0001 to 10
15 | CC(C)(C1CCN(C(=O)NCCCC#N)CC1)[C@H](O)c1cc(Cl)cc2cn[nH]c12 [Compound P-0597, (S)-4-(1-(5-chloro-1H-indazol-7-yl)-1-hydroxy-2-methylpropan-2-yl)-N-(3-cyanopropyl) piperidine-1-carboxamide] | 0.0001 to 10 | 0.0001 to 10
16 | C[C@@H](O)CNC(=O)N1CCC(C(C)(C)[C@H](O)c2cc(Cl)cc3cn[nH]c23)CC1 [Compound P-0670, 4-((S)-1-(5-chloro-1H-indazol-7-yl)-1-hydroxy-2-methylpropan-2-yl)-N-((R)-2-hydroxypropyl) piperidine-1-carboxamide] | 0.0001 to 10 | 0.0001 to 10
17 | CC(C)(C1CCN(C(=O)CN2CCOCC2)CC1)C(O)c1cc(Cl)cc2[nH]ncc12 (stereo not shown) [Compound P-0609, 1-(4-(1-(6-chloro-1H-indazol-4-yl)-1-hydroxy-2-methylpropan-2-yl)piperidin-1-yl)-2-morpholinoethan-1-one] | 0.0001 to 10 | 0.0001 to 10
18 | O=C(c1cccnc1)N1CCC(C(F)(F)[C@H](O)c2c3c(cc4cn[nH]c24)CC3)CC1 [Compound P-0619, (R)-(4-(2-(5,6-dihydro-1H-cyclobuta[f]indazol-7-yl)-1,1-difluoro-2-hydroxyethyl)piperidin-1-yl) (pyridin-3-yl)methanone] | 0.0001 to 10 | 0.0001 to 10
19 | O=C(CN1CCS(=O)(=O)CC1)N1CCC(C(F)(F)[C@H](O)c2c3c(cc4cn[nH]c24)CC3)CC1 [Compound P-0623, (R)-1-(4-(2-(5,6-dihydro-1H-cyclobuta[f]indazol-7-yl)-1,1-difluoro-2-hydroxyethyl)piperidin-1-yl)-2-(1,1-dioxidothiomorpholino) ethan-1-one] | 0.0001 to 10 | 0.0001 to 10
20 | CNC(=O)N1CCC(C(F)(F)C(O)c2cc(Cl)cc3[nH]ncc23)CC1 (stereo not shown) [Compound P-0578, 4-(2-(6-chloro-1H-indazol-4-yl)-1,1-difluoro-2-hydroxyethyl)-N-methylpiperidine-1-carboxamide] | 0.0001 to 10 | 0.0001 to 10
21 | CCC(=O)N1CCC(C(F)(F)[C@H](O)c2c3c(cc4cn[nH]c24)CC3)CC1 [Compound P-0612, (R)-1-(4-(2-(5,6-dihydro-1H-cyclobuta[f]indazol-7-yl)-1,1-difluoro-2-hydroxyethyl)piperidin-1-yl) propan-1-one] | 0.0001 to 10 | 0.0001 to 10
22 | CC(C)(C1CCN(C(=O)NC2CC(F)(F)C2)CC1)[C@H](O)c1cc(Cl)cc2cn[nH]c12 [Compound P-0592, (S)-4-(1-(5-chloro-1H-indazol-7-yl)-1-hydroxy-2-methylpropan-2-yl)-N-(3,3-difluorocyclobutyl) piperidine-1-carboxamide] | 0.0001 to 10 | 0.0001 to 10
23 | CC(C)NC(=O)N1CCC(C(C)(C)[C@H](O)c2cc(Cl)cc3cn[nH]c23)CC1 [Compound P-0594, (S)-4-(1-(5-chloro-1H-indazol-7-yl)-1-hydroxy-2-methylpropan-2-yl)-N-isopropylpiperidine-1-carboxamide] | 0.0001 to 10 | 0.0001 to 10
24 | CC(C)(C1CCN(C(=O)NCC(F)F)CC1)[C@H](O)c1cc(Cl)cc2cn[nH]c12 [Compound P-0581, (S)-4-(1-(5-chloro-1H-indazol-7-yl)-1-hydroxy-2-methylpropan-2-yl)-N-(2,2-difluoroethyl) piperidine-1-carboxamide] | 0.0001 to 10 | 0.0001 to 10
25 | CC(C)(C1CCN(C(=O)C2(F)CC2)CC1)[C@H](O)c1cc(Cl)cc2cn[nH]c12 [Compound P-0659, (S)-(4-(1-(5-chloro-1H-indazol-7-yl)-1-hydroxy-2-methylpropan-2-yl)piperidin-1-yl)(1-fluorocyclopropyl) methanone] | 0.0001 to 10 | 0.0001 to 10
26 | OC(c1cccc(N2CCOCC2)c1)c1cccc2cncn12 (stereo not shown) [Compound P-0069, imidazo[1,5-a]pyridin-5-yl(3-morpholinophenyl)methanol] | 10 to 100 | 10 to 100
